We go through six molecules from patent publication US20040072315A1, “Integrin-binding chimeras” (priority 2003, published 2004).

Where a SMILES comes first, the peptide text is derived from it. Bridges are numbered along the chain shown (N, C = ends). [ ]: non-standard residue; d: D form. hArg = N=C(N)NCCCC[C@H](N)C(=O)O; Mpa = O=C(O)CCS

Experiment [1] deals with platelets in PRP from citrated human blood. Put plainly: ADP-induced platelet aggregation in PRP (light transmission). Format: cell-based. The settings on record: 10 μM ADP; for IC50: molar value (MW of Repro assumed 42 Kd, Integrilin 720d), read-out: Inhibition of ADP-induced platelet aggregation. As to the method: Platelet aggregation was measured by the increase in light transmission as described previously. Briefly, PRP was prepared from citrated human blood, obtained from healthy individuals, by centrifugation at 200×g for 15 mins. Platelet aggregation was induced with 10 μM ADP and measured using a Payton Dual-Aggregometer linked to a chart recorder.
The efficacy of wild-type and five variants of dendroaspin was assessed using ADP-induced platelet aggregation in PRP. The percentage of inhibition of platelet aggregation by these mutant dendroaspins was compared with wild-type dendroaspin and the inhibition of platelet aggregation expressed as IC50 values.

The test system of another experiment is platelets. Put plainly: collagen-induced platelet aggregation. Format: cell-based, human. The settings on record: for IC50: molar value (MW of Repro assumed 42 Kd, Integrilin 720d), read-out: Inhibition of collagen-induced platelet aggregation. As to the method: Platelet aggregation was measured by the increase in light transmission as described previously. Briefly, PRP was prepared from citrated human blood, obtained from healthy individuals, by centrifugation at 200×g for 15 mins. […]

For experiment [2], the system named is factor VIIa, kallikrein, trypsin, chymotrypsin, thrombin, urokinase, plasmin, tissue plasminogen activator, elastase, Staphylococcus aureus V8 protease. To be noted: 300-fold molar excess; cited from earlier work.
Experiment [3] concerns factor Xa. Put plainly: single-stage chromogenic assay of factor Xa inhibition (S-2765). Format: biochemical. To be noted: chromogenic substrate S-2765, 30 min preincubation; for IC50: read-out: Anti-Xa. As to the method: A single-stage chromogenic assay of factor Xa inhibition was used to determine this recombinant molecule. Clotting factor Xa was diluted to […] in 10 mM Hepes (pH 7.5) containing 0.1% bovine serum albumin and 150 mM NaCl (HBSA). Fifty microliters of sample (diluted at vary concentrations into HSBA) were incubated for 30 min at room temperature with 100 μl of factor Xa in a 96-well microtiter plate. Fifty microliters of 1 mM S-2765, a chromogenic substrate for factor Xa, was then added, and the initial rate (mOD per min) of substrate hydrolysis over 5 min was measured at 405/650 nm by using a automated plate reader.

Experiment [4] deals with factor Xa (Homo sapiens, UniProt P00742). The settings on record: slow, tight-binding inhibitor; cited from earlier work.
factor Xa (Homo sapiens, UniProt P00742), sequence (P00742 235-488 limits assumed): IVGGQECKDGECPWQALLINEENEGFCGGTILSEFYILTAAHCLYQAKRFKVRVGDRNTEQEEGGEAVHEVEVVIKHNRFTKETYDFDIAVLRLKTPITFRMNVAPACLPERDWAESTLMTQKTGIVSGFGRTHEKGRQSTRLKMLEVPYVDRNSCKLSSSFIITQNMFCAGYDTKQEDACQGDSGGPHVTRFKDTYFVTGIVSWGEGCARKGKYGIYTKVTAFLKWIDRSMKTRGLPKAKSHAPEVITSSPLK
factor Xa (Homo sapiens, UniProt P00742), sequence (P00742 41-179 partner limits assumed): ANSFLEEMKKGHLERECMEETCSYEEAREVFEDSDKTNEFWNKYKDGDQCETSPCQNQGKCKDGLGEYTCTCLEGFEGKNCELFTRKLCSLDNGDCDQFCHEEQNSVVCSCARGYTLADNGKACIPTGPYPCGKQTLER
For experiment [5], the target named is integrin αIIbβ3 (glycoprotein GP IIb/IIIa) on human platelets (human) (UniProt P08514). Put plainly: cell-based or functional assay.
For experiment [6], the system named is 11 other serine proteases. The settings on record: only protease inhibited among 11 other serine proteases; cited from earlier work.

As to “Repro: also known as 7E3, a known inhibitor of integrin-mediated binding; MW assumed 42 Kd”, in experiment [1], the “Inhibition of ADP-induced platelet aggregation” value is 3.2 µg/mL and the IC50 was determined as 76 nM. For the same molecule, in the experiment with platelets, the “Inhibition of collagen-induced platelet aggregation” value was 3.80 µg/mL and the IC50 is 90 nM.

For orientation: Ki means the dissociation constant of the complex between target and ligand, obtained from inhibition or displacement. Turning to “TAP: tick anticoagulant peptide from Ornithodoros moubata, factor Xa inhibitor (YNRLCIKPRDWIDECDSNEGGERAYFRNGKGGCDSFWICPEDHTGADYYSSYRDCFNACI)”, the “effect on other proteases” value in experiment [2] is recorded as “no effect”. Moreover, in the experiment on factor Xa [3], the Anti-Xa is 0.02 to 0.07 µg/mL and the IC50 was in the range of 2.8 to 10 nM. The Ki in the experiment with factor Xa [4] is 0.588 nM.

Dendroaspin (ligand) displayed an Inhibition of ADP-induced platelet aggregation in experiment [5] of 1.2 µg/mL.

Turning to `N=C(N)NCCCC[C@@H]1NC(=O)CCSSC[C@@H](C(N)=O)NC(=O)[C@@H]2CCCN2C(=O)[C@H](Cc2c[nH]c3ccccc23)NC(=O)[C@H](CC(=O)O)NC(=O)CNC1=O` [Integrilin] ([Mpa][hArg]GDWPC-NH2; disulfide 1-7), in experiment [1], the “Inhibition of ADP-induced platelet aggregation” value was determined as 0.2 µg/mL and the IC50 worked out at 277 nM. In the experiment with platelets, the “Inhibition of collagen-induced platelet aggregation” value stood at 0.23 µg/mL and the IC50 stood at 319 nM.

B1: ND9-M3: cleaved ND9 with a fragment of NAP5 linked to dendroaspin, SEQ ID NO:30 (protein)
chain: RSRGCLLLPACVCKDGFYRDTVIGDCVREEECDQHEIIHVGGGGPGPGGGPGGRICYNHLGTKPPTTETCQEDSCYKNIWTFDNIIRRGCGCFTARGDMPGPYCCESDNCNL
modifications: Descriotion of Artificial Sequence: protein fragment ND9-F3
Take B1: in experiment [1], the “Inhibition of ADP-induced platelet aggregation” value worked out at 4.2 µg/mL and the IC50 stood at 260 nM. Further, in the experiment with platelets, the “Inhibition of collagen-induced platelet aggregation” value stood at 3.90 µg/mL and the IC50 amounted to 240 nM. In addition, in the experiment with factor Xa [3], the Anti-Xa came out at 2.3 µg/mL and the IC50 came to 141 nM.

B2: NAP5: anticoagulant protein of hookworm Ancylostoma caninum, SEQ ID NO:28 (protein)
chain: KAYPECGENEWLDDCGTQKPCEAKCNEEPPEEEDPICRSRGCLLLPACVCKDGFYRDTVIGDCVREEECDQHEIIH
modifications: Description of Artificial Sequence: NAP portion of ND9
For B2, the “inhibition of Factor Xa” value in experiment [6] is 50%.
